Several values for one entry are separate records, joined by “and”; a condition that tells them apart may be missing. Equal entries are not always repeated.
Experiments:
DYRK1/DYRK1A = molecular target: T1, DYRK1/DYRK1A (Homo sapiens, UniProt Q13627); experiment: DYRK1/DYRK1A IC50 assay (Reaction Biology Corp.); format: biochemical; details: DYRK1/DYRK1A assay from Reaction Biology Corp.; NI: No inhibition
T1 construct: purchased Reaction Biology Corp. (assay service)

DYRK1A = DYRK1A (Homo sapiens, UniProt Q13627); experiment: DYRK1A binding assay (DiscoverX KINOMEscan); details: eleven serial three fold dilutions, highest concentration 60 μM
Procedure: Compounds were tested for DYRK1A binding activity at the commercial kinase profiling service DiscoverX. DiscoverX uses proprietary KINOMEscan® Assay (Fabian et al., “A Small Molecule-kinase Interaction Map for Clinical Kinase Inhibitors,” Nat. Biotechnol. 23(3):329-336 (2005), which is hereby incorporated by reference in its entirety). Compounds were screened for DYRK1A activity at a single concentration of 3 μM in duplicates. Similarly, the dissociation constant Kd of the hit compounds from the initial screening was determined at DiscoverX using their proprietary KINOMEscan® Assay. Kd values are determined using eleven serial three fold dilutions with the highest concentration of 60 μM.

Row | SMILES | IC50 (DYRK1/DYRK1A) | Kd (DYRK1A)
1 | O=c1[nH]c2ccc(-c3cnc(NCc4cc[nH]n4)nc3)cc2[nH]1 [Compound 51e, 5-(2-(((1H-Pyrazol-3-yl)methyl)amino)pyrimidin-5-yl)-1H-benzo[d]imidazol-2(3H)-one] | 337 nM | 
2 | O=c1[nH]c2ccc(-c3cnc(NCc4ncco4)nc3)cc2[nH]1 [Compound 51f, 5-(2-((Oxazol-2-ylmethyl)amino)pyrimidin-5-yl)-1H-benzo[d]imidazol-2(3H)-one] | 427 nM | 
3 | O=c1[nH]c2ccc(-c3cnc(Nc4cccc(F)c4)nc3)cc2[nH]1 [Compound 48b, 5-(2-((3-Fluorophenyl)amino)pyrimidin-5-yl)-1H-benzo[d]imidazol-2(3H)-one] | 47.7 nM | 
4 | O=c1[nH]c2ccc(-c3cnc(NCc4ccccc4Cl)nc3)cc2[nH]1 [Compound 29c, 5-(2-((2-Chlorobenzyl)amino)pyrimidin-5-yl)-1H-benzo[d]imidazol-2(3H)-one] |  | 250 nM
5 | O=c1[nH]c2ccc(-c3cnc(NCc4ccc(-c5ccccc5)cc4)nc3)cc2[nH]1 [Compound 29h, 5-(2-(([1,1′-Biphenyl]-4-ylmethyl)amino)pyrimidin-5-yl)-1H-benzo[d]imidazol-2(3H)-one] |  | 1400 nM
6 | NC(=O)c1ccc(CNc2ncc(-c3ccc4[nH]c(=O)[nH]c4c3)cn2)cc1 [Compound 32b, 4-(((5-(2-Oxo-2,3-dihydro-1H-benzo[d]imidazo1-5-yl)pyrimidin-2-yl)amino)methyl)benzamide] |  | 46 nM
7 | COc1ccc(Nc2ncc(-c3ccc4[nH]c(=O)[nH]c4c3)cn2)cc1 [Compound 48i, 5-(2-((4-Methoxyphenyl)amino)pyrimidin-5-yl)-1H-benzo[d]imidazol-2(3H)-one] | 30.1 nM | 
8 | CCn1c(=O)[nH]c2ccc(-c3cnc(NCc4ccccc4)nc3)cc21 [Compound 57a, 6-(2-(Benzylamino)pyrimidin-5-yl)-1-ethyl-1H-benzo[d]imidazol-2(3H)-one] | 243 nM | 
9 | CC(C)n1c(=O)[nH]c2ccc(-c3cnc(NCc4ccccc4)nc3)cc21 [Compound 57b, 6-(2-(Benzylamino)pyrimidin-5-yl)-1-isopropyl-1H-benzo[d]imidazol-2(3H)-one] | 4280 nM | 
10 | N#Cc1ccc(CNc2ncc(-c3ccc4[nH]c(=O)[nH]c4c3)cn2)cc1 [Compound 29g, 4-(((5-(2-Oxo-2,3-dihydro-1H-benzo[d]imidazol-5-yl)pyrimidin-2-yl)amino)methyl)benzonnrile] |  | 120 nM
11 | O=c1[nH]c2ccc(-c3cnc(NCc4c[nH]cn4)nc3)cc2[nH]1 [Compound 51d, 5-(2-(((1H-Imidazol-4-yl)methyl)amino)pyrimidin-5-yl)-1H-benzo[d]imidazol-2(3H)-one] | 326 nM | 
12 | NC(=O)c1cccc(CNc2ncc(-c3ccc4[nH]c(=O)[nH]c4c3)cn2)c1 [Compound 32a, 3-(((5-(2-Oxo-2,3-dihydro-1H-benzo[d]imidazol-5-yl)pyrimidin-2-yl)amino)methyl)benzamide] |  | 130 nM
13 | O=c1[nH]c2ccc(-c3cnc(NCc4cccnc4)nc3)cc2[nH]1 [Compound 30b, 5-(2-((Pyridin-3-ylmethyl)amino)pyrimidin-5-yl)-1H-benzo[d]imidazol-2(3H)-one] |  | 190 nM
14 | O=c1[nH]c2ccc(-c3cnc(NCc4ccc(Cl)cc4)nc3)cc2[nH]1 [Compound 29e, 5-(2-((4-Chlorobenzyl)amino)pyrimidin-5-yl)-1H-benzo[d]imidazol-2(3H)-one] |  | 180 nM
15 | Cn1c(=O)[nH]c2ccc(-c3cnc(NCc4ccc(F)cc4)nc3)cc21 [Compound 17d, 6-(2-((4-Fluorobenzyl)amino)pyrimidin-5-yl)-1-methyl-1H-benzo[d]imidazol-2 (3H)-one] |  | 90 nM
16 | c1ccc(CNc2ncc(-c3ccc4[nH]cnc4c3)cn2)cc1 [Compound 17i, 5-(1H-Benzo[d]imidazol-5-yl)-N-benzylpyrimidin-2-amine] |  | 2000 nM

Row | SMILES | IC50 (DYRK1/DYRK1A) | Kd (DYRK1A)
17 | Fc1ccc(CNc2ncc(-c3ccc4[nH]cnc4c3)cn2)cc1 [Compound 17j, 5-(1H-Benzo[d]imidazol-5-yl)-N-(4-fluorobenzyl)pyrimidin-2-amine] |  | 2300 nM
18 | O=c1[nH]c2ccc(-c3cnc(NCc4ccc(F)cc4)cn3)cc2[nH]1 [Compound 18d, 5-(5-((4-Fluorobenzyl)amino)pyrazin-2-yl)-1H-benzo[d]imidazol-2 (3H)-one] |  | 260 nM
19 | O=c1[nH]c2ccc(-c3cnc(NCc4ccc5ccccc5c4)nc3)cc2[nH]1 [Compound 30e, 5-(2-((Naphthalen-2-ylmethyl)amino)pyrimidin-5-yl)-1H-benzo[d]imidazol-2(3H)-one] |  | 7100 nM
20 | O=c1[nH]c2ccc(-c3cnc(NCc4ccccc4F)nc3)cc2[nH]1 [Compound 29a, 5-(2-((2-Fluorobenzyl)amino)pyrimidin-5-yl)-1H-benzo[d]imidazol-2(3H)-one] |  | 69 nM
21 | CC(Nc1ncc(-c2ccc3[nH]c(=O)[nH]c3c2)cn1)c1ccccc1 (centres unmarked) [Compound 29j, 5-(2-((1-Phenylethyl)amino)pyrimidin-5-yl)-1H-benzo[d]imidazol-2(3H)-one] |  | 360 nM
22 | O=c1[nH]c2ccc(-c3cnc(NCc4ccccc4)nc3)cc2[nH]1 [Compound 16c] |  | 50 nM and 95 nM and 80 nM and 60 nM
23 | O=c1[nH]c2ccc(-c3cnc(NCc4cccc(F)c4)nc3)cc2[nH]1 [Compound 29b, 5-(2-((3-Fluorobenzyl)amino)pyrimidin-5-yl)-1H-benzo[d]imidazol-2(3H)-one] |  | 91 nM
24 | O=c1[nH]c2ccc(-c3cnc(NCCc4ccccc4)nc3)cc2[nH]1 [Compound 29k, 5-(2-(Phenethylamino)pyrimidin-5-yl)-1H-benzo[d]imidazol-2(3H)-one] |  | 200 nM
25 | O=c1[nH]c2ccc(-c3cnc(NCc4ccncc4)nc3)cc2[nH]1 [Compound 30c, 5-(2-((Pyridin-4-ylmethyl)amino)pyrimidin-5-yl)-1H-benzo[d]imidazol-2 (3H)-one] |  | 130 nM
26 | O=c1[nH]c2ccc(-c3cnc(NCc4cccc(Cl)c4)nc3)cc2[nH]1 [Compound 29d, 5-(2-((3-Chlorobenzyl)amino)pyrimidin-5-yl)-1H-benzo[d]imidazol-2(3H)-one] |  | 280 nM
27 | N#Cc1cccc(CNc2ncc(-c3ccc4[nH]c(=O)[nH]c4c3)cn2)c1 [Compound 29f, 3-(((5-(2-Oxo-2,3-dihydro-1H-benzo[d]imidazol-5-yl)pyrimidin-2-yl)amino)methyl)benzonitrile] |  | 49 nM
28 | O=c1[nH]c2ccc(-c3ccc(NCc4ccc(F)cc4)nn3)cc2[nH]1 [Compound 16a, 5-(6-((4-Fluorobenzyl)amino)pyridazin-3-yl)-1H-benzo[d]imidazol-2 (3H)-one] |  | 7000 nM
29 | O=c1[nH]c2ccc(-c3cnc(NCc4cccc5ccccc45)nc3)cc2[nH]1 [Compound 30d, 5-(2-((Naphthalen-1-ylmethyl)amino)pyrimidin-5-yl)-1H-benzo[d]imidazol-2 (3H)-one] |  | 920 nM
30 | Cn1c(=O)[nH]c2ccc(-c3cnc(NCc4ccccc4)nc3)cc21 [Compound 17c, 6-(2-(Benzylamino)pyrimidin-5-yl)-1-methyl-1H-benzo[d]imidazol-2(3H)-one] |  | 59 nM
31 | O=c1[nH]c2ccc(-c3cnc(NCc4ccccc4)cn3)cc2[nH]1 [Compound 18c, 5-(5-(Benzylamino)pyrazin-2-yl)-1H-benzo[d]imidazol-2(3H)-one] |  | 170 nM
32 | O=c1[nH]c2ccc(-c3cnc(NCc4ccc(F)cc4)nc3)cc2[nH]1 [Compound 16b, 5-(2-((4-Fluorobenzyl)amino)pyrimidin-5-yl)-1H-benzo[d]imidazol-2(3H)-one] |  | 73 nM and 82 nM and 140 nM

Reference: patent publication US20220064146A1, “KINASE INHIBITOR COMPOUNDS AND COMPOSITIONS AND METHODS OF USE” (ICAHN SCHOOL OF MEDICINE AT MOUNT SINAI, priority 2018, published 2022)
